Measurements published in article PMC9790248, “Effects of CYP3A Inhibition, CYP3A Induction, and Gastric Acid Reduction on the Pharmacokinetics of Ripretinib, a Switch Control KIT Tyrosine Kinase Inhibitor” (Clinical Pharmacology in Drug Development, 2022).

Tests used:
[1] = Concentration-corrected QT interval analysis; assay type: in vivo; conditions: across a range of plasma concentration; data on file
Description: In the current study, itraconazole was administered as an oral solution on an empty stomach to ensure the highest oral absorption under fasting conditions and minimize gastrointestinal tract irritation during fasting. […] The tolerability of higher exposure is supported by previous safety and PK data.[7], [10] In a phase 1 study of ripretinib in patients with cancer, the maximum tolerated dose was not reached with doses up to ripretinib 200 mg twice daily.[7] Dose escalation to ripretinib 150 mg twice daily was offered to patients in a phase 1 and phase 3 clinical study after radiologic disease progression on 150 mg once daily.[7], [11] […] Steady‐state PK exposure following ripretinib 150 mg twice daily was approximately 2‐fold higher compared with ripretinib 150 mg once daily.[7], [10] […] However, the exposure–safety relationships were relatively shallow, and most AEs were Grades 1 and 2.

[2] = target: T1, CYP2D6 (Homo sapiens, UniProt P10635); assay: Human liver microsomes with chemical inhibitors; assay type: in vitro ADME
T1 construct: with human liver microsomes (0.5 mg protein/mL) for 30 minutes; from tissue; host or cells: human liver microsomes
T1 sequence (P10635 whole entry): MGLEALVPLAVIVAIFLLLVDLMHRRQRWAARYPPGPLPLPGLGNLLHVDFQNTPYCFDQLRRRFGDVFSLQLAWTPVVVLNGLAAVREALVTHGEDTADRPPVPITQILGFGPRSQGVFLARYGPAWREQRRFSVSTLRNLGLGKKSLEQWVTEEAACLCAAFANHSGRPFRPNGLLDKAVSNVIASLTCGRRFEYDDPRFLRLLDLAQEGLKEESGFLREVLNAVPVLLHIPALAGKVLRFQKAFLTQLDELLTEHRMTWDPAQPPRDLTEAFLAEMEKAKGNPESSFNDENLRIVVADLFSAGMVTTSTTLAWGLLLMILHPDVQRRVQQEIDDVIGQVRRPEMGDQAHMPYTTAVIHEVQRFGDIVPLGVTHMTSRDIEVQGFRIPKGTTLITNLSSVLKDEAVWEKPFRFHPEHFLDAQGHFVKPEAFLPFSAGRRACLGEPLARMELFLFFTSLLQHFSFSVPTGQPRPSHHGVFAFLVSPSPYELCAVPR
Description: (§1) In vitro studies with recombinant human cytochrome P450 isoforms (CYPs) and human liver microsomes (with chemical inhibitors) indicate that CYP3A4/5 plays a major role in the metabolism of ripretinib (data on file). When incubated with a panel of recombinant human CYPs, ripretinib (0.1 or 1 μM) disappeared in the presence of CYP3A4 (87.8%–100%), CYP2D6 (97.7%–100%), CYP2C8 (71.2% and 18.9%, respectively), and CYP2C19 (15.7% and 6.7%, respectively).

[3] = target: T2, CYP2C8 (Homo sapiens, UniProt P10632); assay: Human liver microsomes with chemical inhibitors; assay type: in vitro ADME; conditions: metabolism-dependent inhibitor gemfibrozil glucuronide
T2 sequence (P10632 1-490): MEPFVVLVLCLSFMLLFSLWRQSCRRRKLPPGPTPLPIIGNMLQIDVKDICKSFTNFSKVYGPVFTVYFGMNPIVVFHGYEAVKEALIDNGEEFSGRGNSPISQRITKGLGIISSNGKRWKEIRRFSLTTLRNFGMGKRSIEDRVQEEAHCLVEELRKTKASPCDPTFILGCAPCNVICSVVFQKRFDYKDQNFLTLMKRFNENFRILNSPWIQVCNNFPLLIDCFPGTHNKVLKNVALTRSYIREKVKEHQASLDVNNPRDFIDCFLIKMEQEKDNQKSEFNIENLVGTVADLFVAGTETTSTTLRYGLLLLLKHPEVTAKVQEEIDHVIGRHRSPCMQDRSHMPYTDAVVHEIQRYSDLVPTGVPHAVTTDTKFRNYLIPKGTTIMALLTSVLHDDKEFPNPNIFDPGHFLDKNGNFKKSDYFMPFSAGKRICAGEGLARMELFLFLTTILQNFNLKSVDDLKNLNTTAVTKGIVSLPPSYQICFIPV
Description: as §1

[4] = test system: CYP3A4/5; assay: Human liver microsomes with chemical inhibitors; assay type: in vitro ADME
Description: as §1

## CCn1c(=O)c(-c2cc(NC(=O)Nc3ccccc3)c(F)cc2Br)cc2cnc(NC)cc21 [Ripretinib]
[1]
  Concentration-corrected QT interval analysis: did not suggest particular concern
[2]; human liver microsomes, metabolism-dependent inhibitor paroxetine
  Inhibition of metabolism of ripretinib on inhibition of CYP2D6: 16%
[2]; ripretinib 0.1 μM, human liver microsomes 0.5 mg protein/mL, 30 minutes, with quinidine
  Decrease in metabolism of ripretinib on inhibition of CYP2D6: ≤ 26%
[3]
  Inhibition of metabolism of ripretinib on inhibition of CYP2C8: 24%
[4]; human liver microsomes, metabolism-dependent inhibitor troleandomycin
  Inhibition of metabolism of ripretinib on inhibition of CYP3A4/5: 79%
[4]; recombinant human CYPs and human liver microsomes with chemical inhibitors, data on file
  Role of CYP3A4/5 in metabolism: major role
[4]; ripretinib 0.1 μM, human liver microsomes 0.5 mg protein/mL, 30 minutes, with ketoconazole
  Decrease in metabolism of ripretinib on inhibition of CYP3A4/5: up to 63%
